Assay results published in the NIST ThermoML archive (doi:10.1021/je060271a).

Conditions: 323.15 K, Liquid, Vibrating tube method

CCCCCCCC(=O)OCC(COC(=O)CCCCCCC)(COC(=O)CCCCCCC)COC(=O)CCCCCCC [pentaerythritol tetraoctanoate]
Conditions | mass density [kg/m3]
26616 kPa | 957.5
26661 kPa | 957.4
26699 kPa | 957.6
26737 kPa | 957.5
26782 kPa | 957.5
26820 kPa | 957.5
26866 kPa | 957.6
26904 kPa | 957.6
26944 kPa | 957.7
26985 kPa | 957.7
27024 kPa | 957.7
27070 kPa | 957.8
27109 kPa | 957.9
27407 kPa | 957.9
27548 kPa | 957.8
27601 kPa | 958
27639 kPa | 958.1
27665 kPa | 958.1
27687 kPa | 958.2
27713 kPa | 958.1
27735 kPa | 958.1
27761 kPa | 958.2
27784 kPa | 958.1
27806 kPa | 958.3
27832 kPa | 958.2
27854 kPa | 958.3
27877 kPa | 958.2
27899 kPa | 958.2
27926 kPa | 958.2
27943 kPa | 958.3
27970 kPa | 958.3
28091 kPa | 958.4
28114 kPa | 958.4
28142 kPa | 958.4
28164 kPa | 958.3
28188 kPa | 958.3
28216 kPa | 958.4
28238 kPa | 958.4
28262 kPa | 958.4
28284 kPa | 958.5
28312 kPa | 958.6
28336 kPa | 958.5
28358 kPa | 958.6
28386 kPa | 958.5
28410 kPa | 958.5
28434 kPa | 958.4
28461 kPa | 958.5
28484 kPa | 958.5
28508 kPa | 958.6
28531 kPa | 958.6
28559 kPa | 958.6
28583 kPa | 958.6
28607 kPa | 958.7
28635 kPa | 958.6
28658 kPa | 958.7
28687 kPa | 958.9
28711 kPa | 958.7
28734 kPa | 958.8
28758 kPa | 958.6
28787 kPa | 958.8
28812 kPa | 958.8
28836 kPa | 958.8
28860 kPa | 958.9
28889 kPa | 958.7
28913 kPa | 958.9
28937 kPa | 958.8
28966 kPa | 958.9
28990 kPa | 958.9
29019 kPa | 958.9
29043 kPa | 958.8
29068 kPa | 958.9
29098 kPa | 958.9
29122 kPa | 958.9
29148 kPa | 958.9
29173 kPa | 959.1
29198 kPa | 959
29218 kPa | 959
29248 kPa | 959
29273 kPa | 959
29302 kPa | 959.1
29333 kPa | 959.1
29357 kPa | 959.1
29383 kPa | 959.1
29412 kPa | 959.1
29438 kPa | 959.2
29462 kPa | 959.2
29494 kPa | 959.2
29520 kPa | 959.1
29545 kPa | 959.2
29571 kPa | 959.2
29601 kPa | 959.1
29627 kPa | 959.3
29652 kPa | 959.2
29682 kPa | 959.4
29708 kPa | 959.2
29733 kPa | 959.3
29764 kPa | 959.3
29790 kPa | 959.3
29816 kPa | 959.3
29847 kPa | 959.3
29873 kPa | 959.4
29898 kPa | 959.4
29924 kPa | 959.4
29956 kPa | 959.4
29982 kPa | 959.4
30013 kPa | 959.4
30040 kPa | 959.4
30060 kPa | 959.5
30087 kPa | 959.5
30118 kPa | 959.5
30150 kPa | 959.6
30181 kPa | 959.6
30209 kPa | 959.5
30235 kPa | 959.6
30267 kPa | 959.6
30294 kPa | 959.6
30321 kPa | 959.6
30347 kPa | 959.6
30380 kPa | 959.7
30407 kPa | 959.7
30434 kPa | 959.6
30466 kPa | 959.7
30493 kPa | 959.7
30521 kPa | 959.7
30553 kPa | 959.8
30581 kPa | 959.6
30608 kPa | 959.8
30635 kPa | 959.8
30668 kPa | 959.8
30696 kPa | 959.8
30728 kPa | 959.8
30756 kPa | 959.9
30778 kPa | 959.9
30806 kPa | 959.9
30834 kPa | 960
30862 kPa | 959.9
30906 kPa | 960
30934 kPa | 959.8
30962 kPa | 959.9
30991 kPa | 960
31025 kPa | 960
31053 kPa | 959.9
31086 kPa | 960
31115 kPa | 960
31143 kPa | 959.9
31171 kPa | 960.1
31205 kPa | 960.1
31233 kPa | 960.2
